Assay in all cases: NCI tumour cell line growth inhibition, 48 h
Test [1] deals with PC-3 prostate.
For test [2], the system named is LOX IMVI melanoma.
For test [3], the system named is SK-MEL-28 melanoma.
The subject of test [4] is OVCAR-8 ovarian.
In test [5] the test system is UACC-62 melanoma.
In test [6] the test system is RPMI-8226 leukemia.
Test [7] concerns SNB-75 CNS.
Test [8] concerns IGROV1 ovarian.
Test [9] relates to UACC-257 melanoma.
For test [10], the system named is CAKI-1 renal.
In test [11] the test system is COLO 205 colon.
Test [12] relates to SF-268 CNS.
For test [13], the system named is MDA-N.

SMILES strings stand for the structures.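 Growth conditions: 96-well plates. Treatment: test compound, 48 hours, 5 concentrations. Analysis: linear interpolation between bracketing concentrations; unreached endpoints set to highest concentration. The concentration for 50% growth inhibition is given as GI50. TGI: concentration producing complete growth inhibition.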

Regarding `Nc1nc(-c2ccccc2N=NN2CCCC2)nc2ccccc12`, the TGI in test [1] amounted to 15.4 µM; in test [2] it was 3.77 µM; in [3] it was 25.2 µM; in test [4], 3.77 µM; in [5], 3.77 µM; in test [6], 6.46 µM. Besides, the TGI in [7] amounted to 23.8 µM; in test [8] it was 17.3 µM; in test [9] it was 14.9 µM; in [10], 18.5 µM; in test [11], 10.4 µM; in test [12], 21.5 µM.

For the compound `COc1ccc(/C=c2\[nH]c3nc(=O)c(N4CCOCC4)c(N)n3c2=O)cc1`, the TGI in test [2] was more than 100 µM; in test [3] it was more than 100 µM; in test [4], more than 100 µM; in [6] it was more than 100 µM; in [13], more than 100 µM; in test [7] it was 64.5 µM. The TGI in test [8], in test [9], in [10], in [11] and in test [12] was more than 100 µM each time.

As for `C=C(CCC(C)C1CCC2C3=C(C(=O)CC21C)C1(C)CCC(=O)[C@@H](C)C1CC3=O)C(C)C(=O)O` (some centres undefined), the TGI is more than 100 µM in test [1]; 33.8 µM in [2]; more than 100 µM in [3]; more than 100 µM in test [4]; more than 100 µM in test [5]; more than 100 µM in test [7]. Further, the TGI was more than 100 µM in test [8]; more than 100 µM in [9]; 72.3 µM in test [10]; more than 100 µM in [11]; more than 100 µM in test [12].

As to `CC(=O)OCC1OC(n2c3c(c(-c4cccc5ccccc45)c(C#N)c2=S)CCCC3)C(OC(C)=O)C(OC(C)=O)C1OC(C)=O` (centres undefined), the TGI in test [1], in test [2], in test [3], in [4], in test [5] and in test [13] was more than 100 µM throughout. The TGI in test [8], in test [9], in test [11] and in test [12] was more than 100 µM throughout.

On to `Cc1ccc(C(C)(C)C[P+](C)(c2ccccc2)c2ccccc2)cc1`, for which the TGI was 37.8 µM in test [2]; 66.4 µM in test [3]; more than 100 µM in test [4]; 61.4 µM in [5]; 6.7 µM in [6]; 50.8 µM in test [7]. Further, the TGI was more than 100 µM in [8]; more than 26.7 µM in test [9]; more than 69.2 µM in test [10]; 18.7 µM in test [11]; more than 100 µM in [12].

Take `Clc1ccc(N2N=C(c3cccc(Nc4ccncc4)c3)CC2c2ccc3c(c2)OCO3)cc1` (centres undefined): the GI50 in test [1] was 1.58 µM; in [5], 1.76 µM; in test [7] it was 1.58 µM; in test [8], 1.73 µM; in [10] it was 1.44 µM; in test [12], 1.63 µM. The TGI in [1] was found to be 3.27 µM; in test [5] it was 3.32 µM; in test [7], 5.68 µM; in [8], 3.67 µM; in [10] it was 2.9 µM; in [12], 3.32 µM.

As to `O=CC(O)C(O)C(O)C(O)C(=O)NCCCCCCCCCCCCNC(=O)C(O)C(O)C(O)C(O)C=O` (centres undefined), the TGI in test [1], in test [2], in [3], in [4], in test [5] and in [13] was more than 100 µM in each case. Further, the TGI in test [8], in test [9], in test [11] and in test [12] was more than 100 µM each time.

On to `COC1OC(Cc2nnc(C)o2)C(OCc2ccccc2)C(OCc2ccccc2)C1OCc1ccccc1` (centres undefined), for which the TGI in test [2] is 40.3 µM; in test [3], 45.3 µM; in test [5], 32.3 µM; in test [6], more than 100 µM; in [7], more than 100 µM; in [8] it was 52.4 µM. Further, the TGI in test [9] was 36.9 µM; in [10], more than 100 µM; in [11], 44.1 µM; in test [12] it was 46.3 µM.

Turning to `C/C(=C\c1ccccn1)c1ccccn1`, the TGI in test [1], in test [3], in test [4], in test [5], in [6] and in test [13] was more than 100 µM in each case. Moreover, the TGI in [7], in test [8], in [9], in [10], in test [11] and in test [12] was more than 100 µM each time.

Regarding `O=C(CCN1CCCC1)Nc1ccc2sc3ccccc3c(=O)c2n1`, the TGI came to 22.2 µM in test [1]; 19.9 µM in [3]; 17.3 µM in test [4]; 17.2 µM in test [5]; 21.9 µM in [6]; 20.1 µM in [13]. For the same compound, the TGI is 18.2 µM in [7]; 23.6 µM in test [8]; 17 µM in test [9]; 16.7 µM in test [10]; 16.3 µM in test [11]; more than 31.6 µM in test [12].

For `COc1cccc(CC(C)NCC(O)c2ccc(O)c(O)c2)c1` (centres undefined), the TGI in test [1] was more than 100 µM; in [2] it was more than 100 µM; in test [3], more than 100 µM; in test [4] it was 53.6 µM; in test [5] it was more than 100 µM; in test [6], more than 100 µM. In addition, the TGI in [7], in test [8], in test [9], in test [10], in [11] and in test [12] was more than 100 µM throughout.

For the compound `O=C(NCc1cccc(C(F)(F)F)c1)c1cc2sccc2nc1C(F)(F)F`, the TGI in test [1], in test [3], in test [4], in test [5], in [6] and in test [13] was more than 100 µM in each case. Moreover, the TGI in [8], in [9], in [10], in [11] and in [12] was more than 100 µM throughout.
